Source: paper PMC10814725, “In Vitro Anti-Inflammatory Study of Limonoids Isolated from Chisocheton Plants” (Current Issues in Molecular Biology, 2024)
Read-outs that look alike come from different tables or passages of the source.

Assays:
Format in all cases: cell-based
in vitro = details: mouse
[1] = Cell viability by CCK-8, THP-1 cells; details: human, PMA-differentiated THP-1 cells; for CC50 at 18 h: concentration causing 50% cytotoxicity against THP-1 cells
Method in brief: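 THP-1 cells seeded at 5 × 10^4 cells/well in 96-well plates were differentiated with 0.5 μM PMA for 24 h, washed with PBS, and held overnight at 37 °C in RPMI-1640 containing 0.1% FBS and 1% penicillin–streptomycin. After 1 h compound pretreatment and 18 h further incubation, 10% (v/v) CCK-8 was added for 1 h. Absorbance was read at 405 nm, and background-corrected viability was expressed relative to untreated control cells.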

[2] = tested on: TNF-α, IL-6, IL-1β, and MCP-1; assay: ELISA of pro-inflammatory markers overall (TNF-α, IL-6, IL-1β, MCP-1) in LPS-stimulated THP-1 cells; details: Homo sapiens, read-out: Overall IC50 values for the evaluated pro-inflammatory markers
Method: The logarithmic growth phase of THP-1 cells was achieved by seeding in 96-well plates at a density of 5 × 10^4 cells/well and differentiated for 24 h in the presence of PMA (0.5 μM solution in medium). After 24 h of incubation, the culture medium was removed from the 96-well plate and the cells were washed with PBS. Fresh RPMI-1640 medium supplemented with 0.1% FBS and 1% Penicillin–Streptomycin was added to each well and incubated at 37 °C overnight. The cells were pretreated with 17 limonoids at the corresponding concentration for 1 h, followed by the addition of LPS (10 ng/mL) and then incubation at 37 °C for 18 h. Finally, 50 μL of each culture supernatant solution was taken to determine the concentrations of IL-6, MCP-1, and IL-1β using the corresponding commercially available human ELISA kits following the manufacturer’s instructions. The analyte concentration in the supernatant was measured in pg/mL, and the inhibition level was expressed as a fold change compared to the LPS (−) control group. To determine the IC50 value, the dose-response data were normalized to the LPS-stimulated-only group, and the percentage of inhibition was calculated using the following formula: % Inhibition=(Absorbance of LPS+ control−Absorbance of compound treatment with LPS)/(Absorbance of LPS+ control−Absorbance of LPS− control)×100
Furthermore, the % inhibition data were interpolated into linear equations to determine the IC50 values.

[3] = LPS 10 ng/mL, read-out: Viability Cell (%) THP-1 LPS-Induced (10 ng/mL)
[4] = without LPS, read-out: Viability Cell (%) THP-1 Without LPS

## CC(=O)O[C@H]1[C@@H](O)[C@@]2(C)C3=CC[C@@H](c4ccoc4)[C@]3(C)CC[C@@H]2[C@@]2(C)C=CC(=O)C(C)(C)[C@H]12 [Compound 3, 6α-O-acetyl-7-deacetylnimocinol]
In vitro
  viability at 5 µM: 90.3 ± 5.24%
  viability at 10 µM: 91.4 ± 8.26%
  viability at 20 µM: 70.2 ± 2.29%
[1]; [3]
  viability at 18 h, 10 µM: > 99.9%
[1]; [4]
  viability at 18 h, 10 µM: > 99.9%
[1]
  CC50 at 18 h: 20.3 µM
[2]
  IC50: < 20 µM

## CC(=O)O[C@H]1[C@@H](OC(C)=O)[C@@]2(C)C3=CC[C@@H](c4ccoc4)[C@]3(C)CC[C@@H]2[C@@]2(C)C=CC(=O)C(C)(C)[C@H]12 [Compound 5, dysobinin]
In vitro
  viability at 5 µM: 83.6 ± 8.91%
  viability at 10 µM: 84.29 ± 0.28%
  viability at 20 µM: 3.19 ± 1.24%
[1]; [3]
  viability at 18 h, 10 µM: 52 ± 6.51%
[1]; [4]
  viability at 18 h, 10 µM: 66.7 ± 6.02%
[1]
  CC50 at 18 h: 14.6 µM
[2]
  IC50: < 20 µM
